# From patent EP1118612A1, “Piperazine derivatives possesing nootropic activity” (Universita Degli Studi di Firenze, priority 2000, dated 2001)
# Tested on: mice
# Assay: Passive-Avoidance test (modified step-through, fall into cold water bath), amnesia induced by scopolamine, baclofen, mecamylamine or clonidine
# Type: in vivo, mouse
# Conditions: for 2nd Day (latency time for entering the dark compartment, retention test after 24 h): max latency 120 s
# Procedure: A slightly modified step-through method described by Jarvik and [Psycol. Rep. […] The apparatus consists of a two-compartment acrylic box with a lighted compartment connected to the darkened one by a guillotine door. In the original method, mice received a punishing electrical shock as soon as they entered the dark compartment, while in our modified method, after entry into the dark compartment, mice receive a non-painful punishment consisting of a fall (from 40 cm ) into a cold water bath (10°C) . For this purpose the dark chamber was constructed with a pitfall floor. The latency times for entering the dark compartment were measured in the training test (first day) and after 24 h in the retention test (second day). […] All investigated drugs were injected 20 min before the training session, while amnesic drugs were injected immediately after termination of the training session. […] The memory degree of received punishment (fall into cold water) was expressed as the increase in seconds between training and retention latencies (see Table 5).
# [1] = 0.001 mg kg^-1 injected 20 min before training, + Scopolamine 1.5 mg kg^-1 i.p. after training
# [2] = 0.1 mg kg^-1, + Scopolamine 1.5 mg kg^-1 i.p.
# [3] = 0.1 mg kg^-1 injected 20 min before training, + Scopolamine 1.5 mg kg^-1 i.p. after training
# [4] = 1.0 mg kg^-1 injected 20 min before training, + Baclofen 2 mg kg^-1 i.p. after training
# [5] = 1.0 mg kg^-1 injected 20 min before training, + Clonidine 0.125 mg kg^-1 i.p. after training
# [6] = 10 mg kg^-1 injected 20 min before training, + Scopolamine 1.5 mg kg^-1 i.p. after training
# [7] = 20 mg kg^-1 injected 20 min before training, + Mecamilamine 20 mg kg^-1 i.p. after training
# [8] = 0.01 mg kg^-1, + Scopolamine 1.5 mg kg^-1 i.p.
# [9] = 0.01 mg kg^-1 injected 20 min before training, + Scopolamine 1.5 mg kg^-1 i.p. after training
# [10] = 0.1 mg kg^-1 injected 20 min before training, + Baclofen 2 mg kg^-1 i.p. after training
# [11] = 0.1 mg kg^-1 injected 20 min before training, + Clonidine 0.125 mg kg^-1 i.p. after training
# [12] = 1 mg kg^-1 injected 20 min before training, + Mecamilamine 20 mg kg^-1 i.p. after training
# [13] = 30 mg kg^-1 injected 20 min before training, + Baclofen 2 mg kg^-1 i.p. after training
# [14] = 30 mg kg^-1 injected 20 min before training, + Scopolamine 1.5 mg kg^-1 i.p. after training
# [15] = 0.01 mg kg^-1 injected 20 min before training, + Baclofen 2 mg kg^-1 i.p. after training
# [16] = 10 mg kg^-1 injected 20 min before training, + Mecamilamine 20 mg kg^-1 i.p. after training
compound,measurement,setting,value
"O=C1CCC2CN(S(=O)(=O)c3ccc(F)cc3)CCN12 (racemic) [Compound 2, 4-(4-fluorobenzensolfonyl)-1,4-diazabicyclo[4.3.0]nonan-9-one]",Δ (increase in seconds between training and retention latencies),"0.001 mg kg^-1, + Scopolamine 1.5 mg kg^-1 i.p.",93.8 s
same,"1st Day (latency time for entering the dark compartment, training test)",[1],19.7 ± 5.8 s
same,"2nd Day (latency time for entering the dark compartment, retention test after 24 h)",[1],104.4 ± 10.6 s
"C[C@H]1C[C@@H]2CN(C(=O)c3ccc(F)cc3)CCN2C1=O (racemic) [Compound 3a, Exo (±) 8-methyl-4-(4-fluorobenzoyl)-1,4-diazabicyclo[4.3.0]nonan-9-one]",Δ (increase in seconds between training and retention latencies),[2],85.6 s
same,"1st Day (latency time for entering the dark compartment, training test)",[3],21.8 ± 4.8 s
same,"2nd Day (latency time for entering the dark compartment, retention test after 24 h)",[3],107.4 ± 10.7 s
"C[C@@H]1C[C@@H]2CN(C(=O)c3ccc(F)cc3)CCN2C1=O (racemic) [Compound 3b, Endo (±) 8-methyl-4-(4-fluorobenzoyl)-1,4-diazabicyclo[4.3.0]nonan-9-one]",Δ (increase in seconds between training and retention latencies),[2],80.0 s
same,"1st Day (latency time for entering the dark compartment, training test)",[3],12.5 ± 5.9 s
same,"2nd Day (latency time for entering the dark compartment, retention test after 24 h)",[3],104.0 ± 8.6 s
"O=C(c1ccc(F)cc1)N1CCN2C(=O)CCC2C1 (stereo not shown) [Compound 1, 4-(4-fluorobenzoyl)-1,4-diazabicyclo[4.3.0]nonan-9-one]",Δ (increase in seconds between training and retention latencies),[2],82.2 s
same,"1st Day (latency time for entering the dark compartment, training test)",[3],18.1 ± 3.9 s
same,"2nd Day (latency time for entering the dark compartment, retention test after 24 h)",[3],100.3 ± 10.4 s
"C[C@H]1C[C@@H]2CN(S(=O)(=O)c3ccc(F)cc3)CCN2C1=O [Compound 4a, Exo 8-methyl-4-(4-fluorobenzensolfonyl)-1,4-diazabicyclo[4.3.0]nonan-9-one]",Δ (increase in seconds between training and retention latencies),[2],78.0 s
same,"1st Day (latency time for entering the dark compartment, training test)",[3],16.9 ± 6.1 s
same,"2nd Day (latency time for entering the dark compartment, retention test after 24 h)",[3],94.9 ± 11.2 s
"C[C@@H]1C[C@@H]2CN(S(=O)(=O)c3ccc(F)cc3)CCN2C1=O [Compound 4b, Endo 8-methyl-4-(4-fluorobenzensolfonyl)-1,4-diazabicyclo[4.3.0]nonan-9-one]",Δ (increase in seconds between training and retention latencies),[2],96.5 s
same,"1st Day (latency time for entering the dark compartment, training test)",[3],21.9 ± 4.7 s
same,"2nd Day (latency time for entering the dark compartment, retention test after 24 h)",[3],118.4 ± 10.2 s
"CC(=O)N1CCN(C(=O)c2ccc(F)cc2)CC1 [Compound 5, 4-Acetyl-1-(4-fluorobenzoyl)piperazine]",Δ (increase in seconds between training and retention latencies),"1.0 mg kg^-1, + Baclofen 2 mg kg^-1 i.p.",93.2 s
same,Δ (increase in seconds between training and retention latencies),"1.0 mg kg^-1, + Clonidine 0.125 mg kg^-1 i.p.",88.1 s
same,"1st Day (latency time for entering the dark compartment, training test)",[4],11.4 ± 5.2 s
same,"2nd Day (latency time for entering the dark compartment, retention test after 24 h)",[4],104.6 ± 10.3 s
same,"1st Day (latency time for entering the dark compartment, training test)",[5],8.0 ± 4.1 s
same,"2nd Day (latency time for entering the dark compartment, retention test after 24 h)",[5],96.1 ± 10.7 s
same,Δ (increase in seconds between training and retention latencies),"10 mg kg^-1, + Scopolamine 1.5 mg kg^-1 i.p.",72.6 s
same,"1st Day (latency time for entering the dark compartment, training test)",[6],17.5 ± 6.1 s
same,"2nd Day (latency time for entering the dark compartment, retention test after 24 h)",[6],91.1 ± 9.5 s
same,Δ (increase in seconds between training and retention latencies),"20 mg kg^-1, + Mecamilamine 20 mg kg^-1 i.p.",91.7 s
same,"1st Day (latency time for entering the dark compartment, training test)",[7],17.0 ± 2.7 s
same,"2nd Day (latency time for entering the dark compartment, retention test after 24 h)",[7],108.7 ± 3.5 s
"CC(=O)N1CCN(S(=O)(=O)c2ccc(F)cc2)CC1 [Compound 6, 4-Acetyl-1-(4-fluorobenzensolfonyl)piperazine]",Δ (increase in seconds between training and retention latencies),[8],79.2 s
same,"1st Day (latency time for entering the dark compartment, training test)",[9],19.8 ± 4.1 s
same,"2nd Day (latency time for entering the dark compartment, retention test after 24 h)",[9],99.0 ± 18.3 s
same,Δ (increase in seconds between training and retention latencies),"0.1 mg kg^-1, + Baclofen 2 mg kg^-1 i.p.",80.4 s
same,Δ (increase in seconds between training and retention latencies),"0.1 mg kg^-1, + Clonidine 0.125 mg kg^-1 i.p.",77.4 s
same,"1st Day (latency time for entering the dark compartment, training test)",[10],11.7 ± 4.1 s
same,"2nd Day (latency time for entering the dark compartment, retention test after 24 h)",[10],92.1 ± 7.9 s
same,"1st Day (latency time for entering the dark compartment, training test)",[11],14.7 ± 3.7 s
same,"2nd Day (latency time for entering the dark compartment, retention test after 24 h)",[11],92.4 ± 8.1 s
same,Δ (increase in seconds between training and retention latencies),"1 mg kg^-1, + Mecamilamine 20 mg kg^-1 i.p.",91.6 s
same,"1st Day (latency time for entering the dark compartment, training test)",[12],18.1 ± 3.8 s
same,"2nd Day (latency time for entering the dark compartment, retention test after 24 h)",[12],109.7 ± 13.6 s
"CCC(=O)N1CCN(C(=O)c2ccc(F)cc2)CC1 [Compound 7, 4-Propionyl-1-(4-fluorobenzoyl)piperazine]",Δ (increase in seconds between training and retention latencies),"30 mg kg^-1, + Baclofen 2 mg kg^-1 i.p.",86.8 s
same,Δ (increase in seconds between training and retention latencies),"30 mg kg^-1, + Scopolamine 1.5 mg kg^-1 i.p.",80.5 s
same,"1st Day (latency time for entering the dark compartment, training test)",[13],20.6 ± 4.9 s
same,"2nd Day (latency time for entering the dark compartment, retention test after 24 h)",[13],107.1 ± 11.4 s
same,"1st Day (latency time for entering the dark compartment, training test)",[14],11.9 ± 5.6 s
same,"2nd Day (latency time for entering the dark compartment, retention test after 24 h)",[14],92.4 ± 10.1 s
"CCC(=O)N1CCN(S(=O)(=O)c2ccc(F)cc2)CC1 [Compound 8, 4-Propionyl-1-(4-fluorobenzensolfonyl)piperazine]",Δ (increase in seconds between training and retention latencies),"0.01 mg kg^-1, + Baclofen 2 mg kg^-1 i.p.",86.8 s
same,Δ (increase in seconds between training and retention latencies),[8],67.9 s
same,"1st Day (latency time for entering the dark compartment, training test)",[15],16.3 ± 3.3 s
same,"2nd Day (latency time for entering the dark compartment, retention test after 24 h)",[15],103.3 ± 13.9 s
same,"1st Day (latency time for entering the dark compartment, training test)",[9],15.9 ± 3.2 s
same,"2nd Day (latency time for entering the dark compartment, retention test after 24 h)",[9],83.8 ± 9.2 s
same,Δ (increase in seconds between training and retention latencies),"10 mg kg^-1, + Mecamilamine 20 mg kg^-1 i.p.",90.2 s
same,"1st Day (latency time for entering the dark compartment, training test)",[16],16.5 ± 2.7 s
same,"2nd Day (latency time for entering the dark compartment, retention test after 24 h)",[16],106.7 ± 10.2 s
"NC(=O)CN1CCCC1=O [Piracetam, piracetam, reference compound]","1st Day (latency time for entering the dark compartment, training test)",[13],20.9 ± 4.5 s
same,"1st Day (latency time for entering the dark compartment, training test)","30 mg kg^-1 injected 20 min before training, + Clonidine 0.125 mg kg^-1 i.p. after training",11.6 ± 3.7 s
same,"1st Day (latency time for entering the dark compartment, training test)","30 mg kg^-1 injected 20 min before training, + Mecamilamine 20 mg kg^-1 i.p. after training",16.7 ± 4.8 s
same,"1st Day (latency time for entering the dark compartment, training test)",[14],17.6 ± 3.6 s
